The text below walks through data of patent US7056947B2, “Aza-peptide epoxides” (Georgia Tech Research Corp., priority 2002, dated 2006).

What all share (format): biochemical
For one test, the target named is T1, caspase-3 (Homo sapiens, UniProt P42574).
T1 construct: made in house; host or cells: E. coli
T1 sequence (P42574 29-175 limits assumed): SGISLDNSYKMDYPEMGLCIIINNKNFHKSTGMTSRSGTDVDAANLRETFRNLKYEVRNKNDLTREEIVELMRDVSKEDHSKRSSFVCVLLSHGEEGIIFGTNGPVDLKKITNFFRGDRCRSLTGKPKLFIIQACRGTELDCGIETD
T1 sequence (P42574 176-277 limits assumed): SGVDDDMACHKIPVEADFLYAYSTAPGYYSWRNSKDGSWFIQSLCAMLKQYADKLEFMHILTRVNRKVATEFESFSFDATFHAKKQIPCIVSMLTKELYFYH
Nature of the test: Caspase-3 progress curve assay. The note with it: substrate Z-DEVD-AFC; NI = no inhibition. Put shortly: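 E. coli-expressed caspases, pre-activated 10 min at 37° C with 10 mM DTT, were added to 100 μM Z-DEVD-AFC plus inhibitor in 50 mM Hepes, 100 mM NaCl, 0.1% CHAPS, 10% sucrose, 10 mM DTT, pH 7.4. AFC fluorescence (ex 400/em 505 nm) was followed; inhibition rates and equilibria came from progress curves.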

The next test has as its target T2, caspase-6 (Homo sapiens, UniProt P55212).
T2 construct: made in house; host or cells: E. coli
T2 sequence (P55212 24-179 limits assumed): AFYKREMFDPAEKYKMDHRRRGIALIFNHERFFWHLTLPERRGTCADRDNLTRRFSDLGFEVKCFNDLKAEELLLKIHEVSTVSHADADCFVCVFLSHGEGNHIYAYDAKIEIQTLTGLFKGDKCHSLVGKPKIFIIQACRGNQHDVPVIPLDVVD
T2 sequence (P55212 194-293 limits assumed): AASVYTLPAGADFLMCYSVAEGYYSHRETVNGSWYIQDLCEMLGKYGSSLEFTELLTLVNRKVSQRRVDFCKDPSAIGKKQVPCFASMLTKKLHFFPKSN
Nature of the test: Caspase-6 progress curve assay. The note with it: Table V, substrate Z-DEVD-AFC. How it is done:
Caspase-3, -6, and -8. Caspase-3, -6 and -8 were expressed in E. coli and purified according to methods previously described by Stennicke and Salvesen. Assays using the fluorogenic substrate Z-DEVD-AFC (λex=400 nm, λem=505 nm) were carried out on a Molecular Devices fMax fluorescence microplate reader. Inhibition rates and equilibria were determined by the progress curve method. The standard 100 μL reaction was started by adding enzyme to a mixture of substrate (final concentration of Z-DEVD-AFC 100 μM) and various amounts of inhibitor in buffer (50 mM Hepes, 100 mM NaCl, 0.1% (w/v) CHAPS, sucrose 10% (w/v), and 10 mM DTT, at pH 7.4). The caspases were pre-activated for 10 min at 37° C. in the presence of 10 mM DTT.

Another test has as its target T3, caspase-1 (Homo sapiens, UniProt P29466, D381E).
T3 construct: His tag (N); made in house; host or cells: E. coli
T3 sequence (P29466 120-297 limits assumed): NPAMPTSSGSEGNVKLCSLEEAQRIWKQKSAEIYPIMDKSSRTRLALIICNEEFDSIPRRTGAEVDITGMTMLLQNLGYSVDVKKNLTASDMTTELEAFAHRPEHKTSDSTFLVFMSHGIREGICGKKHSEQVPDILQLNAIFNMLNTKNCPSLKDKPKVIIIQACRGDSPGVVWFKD
T3 sequence (P29466 317-404 D381E limits assumed): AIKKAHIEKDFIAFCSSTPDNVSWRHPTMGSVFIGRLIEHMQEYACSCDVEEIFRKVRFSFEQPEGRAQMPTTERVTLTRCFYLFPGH
The test can be described thus: Caspase-1 progress curve assay. The note with it: D381E variant, substrate Ac-YVAD-AMC, 30° C. Put shortly:
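Autolysis-resistant D381E caspase-1 (E. coli, N-His tag), about 2 nM, added with 15 μM Ac-YVAD-AMC in HEPES/glycerol/EDTA buffer with 5 mM DTT to prewarmed compound at 30 °C. AMC fluorescence followed 900 s, triplicate curves fit to irreversible inactivation; kon (M^−1s^−1) from regression slope.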

The target in test [1] is dipeptidyl peptidase I (DPPI, cathepsin C) (Homo sapiens, UniProt P53634). The test can be described thus: Inhibition of DPPI.
Sequence of dipeptidyl peptidase I (DPPI, cathepsin C) (P53634 25-463, species assumed): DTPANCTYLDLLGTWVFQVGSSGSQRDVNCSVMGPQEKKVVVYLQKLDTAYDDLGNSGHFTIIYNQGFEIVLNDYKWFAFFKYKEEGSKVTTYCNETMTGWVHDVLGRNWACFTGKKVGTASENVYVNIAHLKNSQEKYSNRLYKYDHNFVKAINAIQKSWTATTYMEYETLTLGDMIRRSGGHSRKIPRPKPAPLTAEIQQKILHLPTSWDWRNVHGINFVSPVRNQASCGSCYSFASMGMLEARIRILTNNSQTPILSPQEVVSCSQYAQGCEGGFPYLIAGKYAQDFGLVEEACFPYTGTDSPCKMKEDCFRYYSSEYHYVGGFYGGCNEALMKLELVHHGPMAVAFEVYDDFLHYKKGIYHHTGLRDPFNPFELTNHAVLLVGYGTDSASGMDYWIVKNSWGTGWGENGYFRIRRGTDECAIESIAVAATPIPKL

On to `CC(C)C[C@H](NC(=O)OCc1ccccc1)C(=O)N[C@@H](CCC(=O)O)C(=O)N[C@H](C(=O)NN(CC(=O)O)C(=O)[C@H]1O[C@@H]1C(=O)N(C)Cc1ccccc1)[C@@H](C)O` [11-16, (2S,3S)-2-(N-Methyl-N-benzylcarbamoyl)-3-(N^2-(N-benzyloxycarbonylleucylglutamylthreonyl)-N^1-carboxymethylhydrazinocarbonyl)oxirane], for which the “k2 caspase-3” value on caspase-3 amounted to 2640 ± 100 M⁻¹ s⁻¹. The “k2 caspase-6” value at caspase-6 came out at 9680 ± 875 M⁻¹ s⁻¹.
For the compound `CCCCN(CCCC)C(=O)[C@H]1O[C@@H]1C(=O)N(CC(=O)O)NC(=O)[C@H](C)NC(=O)[C@@H](NC(=O)CCc1ccccc1)C(C)C` [10-129, (2S,3S)-2-(Dibutylcarbamoyl)-3-(N^2-(3-phenylpropanoylvalylalanyl)-N^1-carboxymethylhydrazinocarbonyl)oxirane], the “k2 caspase-1” value on caspase-1 is 26150 ± 5460 M⁻¹ s⁻¹. Besides, on caspase-3, the “k2 caspase-3” value worked out at 520 ± 10 M⁻¹ s⁻¹. Also, on caspase-6, the “k2 caspase-6” value is 53 ± 9 M⁻¹ s⁻¹.
For `CC[C@H](C)[C@H](NC(=O)OCc1ccccc1)C(=O)N[C@@H](CCC(=O)O)C(=O)N[C@H](C(=O)NN(CC(=O)O)C(=O)[C@H]1O[C@@H]1C(=O)N(C)Cc1ccccc1)[C@@H](C)O` [11-18, (2S,3S)-2-(N-Methyl-N-benzylcarbamoyl)-3-(N^2-(N-benzyloxycarbonylisoleucylglutamylthreonyl)-N^1-carboxymethylhydrazinocarbonyl)oxirane], the “k2 caspase-3” value on caspase-3 is 4780 M⁻¹ s⁻¹. Besides, the “k2 caspase-6” value at caspase-6 came out at 47730 ± 420 M⁻¹ s⁻¹.
For `CC(C)C[C@H](NC(=O)OCc1ccccc1)C(=O)N[C@@H](CCC(=O)O)C(=O)N[C@H](C(=O)NN(CC(=O)O)C(=O)[C@H]1O[C@@H]1C(=O)N(Cc1ccccc1)Cc1ccccc1)[C@@H](C)O` [11-4, (2S,3S)-2-(Dibenzylcarbamoyl)-3-(N^2-(N-benzyloxycarbonylleucylglutamylthreonyl)-N^1-carboxymethylhydrazinocarbonyl)oxirane], in that order: 2750 ± 205 M⁻¹ s⁻¹ and 13840 ± 270 M⁻¹ s⁻¹.
Consider `CC[C@H](C)[C@H](NC(=O)OCc1ccccc1)C(=O)N[C@@H](CCC(=O)O)C(=O)N[C@H](C(=O)NN(CC(=O)O)C(=O)[C@H]1O[C@@H]1C(=O)N(Cc1ccccc1)Cc1ccccc1)[C@@H](C)O` [11-11, (2S,3S)-2-(Dibenzylcarbamoyl)-3-(N^2-(N-benzyloxycarbonylisoleucylglutamylthreonyl)-N^1-carboxymethylhydrazinocarbonyl)oxirane], for which the “k2 caspase-3” value on caspase-3 worked out at 3550 M⁻¹ s⁻¹. The “k2 caspase-6” value at caspase-6 is 32000 ± 1680 M⁻¹ s⁻¹.
For the compound `CCCC(N)C(=O)NN(CCc1ccccc1)C(=O)C1OC1C(=O)OCC.O=C(O)C(F)(F)F` (stereo not drawn) [Nva-AHph-trans-EP-COOEt.TFA], the “kobs/[I] DPPI” value in test [1] is 3.2 M⁻¹ s⁻¹.
As to `CC(C)[C@H](NC(=O)CCc1ccccc1)C(=O)N[C@@H](C)C(=O)NN(CC(=O)O)C(=O)[C@H]1O[C@@H]1C(=O)N(C)Cc1ccccc1` [11-17, (2S,3S)-2-(N-Methyl-N-benzylcarbamoyl)-3-(N^2-(3-phenylpropanoylvalylalanyl)-N^1-carboxymethylhydrazinocarbonyl)oxirane], the “k2 caspase-3” value on caspase-3 amounted to 1950 ± 150 M⁻¹ s⁻¹. The “k2 caspase-6” value at caspase-6 is 136 M⁻¹ s⁻¹.
Regarding `CCCCC(N)C(=O)NN(CCc1ccccc1)C(=O)C1OC1C(=O)OCC.O=C(O)C(F)(F)F` (stereo not drawn) [Nle-AHph-trans-EP-COOEt.TFA, trans-3-(N^2-Norleucyl)-N^1-phenylethylhydrazinocarbonyl)oxirane-2-carboxylic Acid Ethyl Ester Trifluoroacetate Salt], the “kobs/[I] DPPI” value in test [1] turned out to be 8.2 M⁻¹ s⁻¹.
On to `CC(C)[C@H](NC(=O)CCc1ccccc1)C(=O)N[C@@H](C)C(=O)NN(CC(=O)O)C(=O)[C@H]1O[C@@H]1C(=O)N(Cc1ccccc1)Cc1ccccc1` [10-127, (2S,3S)-2-(Dibenzylcarbamoyl)-3-(N^2-(3-phenylpropanoylvalylalanyl)-N^1-carboxymethylhydrazinocarbonyl)oxirane], for which the “k2 caspase-1” value at caspase-1 was 101140 ± 9547 M⁻¹ s⁻¹. In addition, the “k2 caspase-3” value on caspase-3 was found to be 830 ± 40 M⁻¹ s⁻¹. The “k2 caspase-6” value at caspase-6 is 145 ± 1 M⁻¹ s⁻¹.
